Target: MutSα (MSH2/MSH6 heterodimer) (Homo sapiens, UniProt P43246+P52701)
Test: Biacore SPR
Format: binding

Sequence of MutSα (MSH2/MSH6 heterodimer) (P43246 2-934): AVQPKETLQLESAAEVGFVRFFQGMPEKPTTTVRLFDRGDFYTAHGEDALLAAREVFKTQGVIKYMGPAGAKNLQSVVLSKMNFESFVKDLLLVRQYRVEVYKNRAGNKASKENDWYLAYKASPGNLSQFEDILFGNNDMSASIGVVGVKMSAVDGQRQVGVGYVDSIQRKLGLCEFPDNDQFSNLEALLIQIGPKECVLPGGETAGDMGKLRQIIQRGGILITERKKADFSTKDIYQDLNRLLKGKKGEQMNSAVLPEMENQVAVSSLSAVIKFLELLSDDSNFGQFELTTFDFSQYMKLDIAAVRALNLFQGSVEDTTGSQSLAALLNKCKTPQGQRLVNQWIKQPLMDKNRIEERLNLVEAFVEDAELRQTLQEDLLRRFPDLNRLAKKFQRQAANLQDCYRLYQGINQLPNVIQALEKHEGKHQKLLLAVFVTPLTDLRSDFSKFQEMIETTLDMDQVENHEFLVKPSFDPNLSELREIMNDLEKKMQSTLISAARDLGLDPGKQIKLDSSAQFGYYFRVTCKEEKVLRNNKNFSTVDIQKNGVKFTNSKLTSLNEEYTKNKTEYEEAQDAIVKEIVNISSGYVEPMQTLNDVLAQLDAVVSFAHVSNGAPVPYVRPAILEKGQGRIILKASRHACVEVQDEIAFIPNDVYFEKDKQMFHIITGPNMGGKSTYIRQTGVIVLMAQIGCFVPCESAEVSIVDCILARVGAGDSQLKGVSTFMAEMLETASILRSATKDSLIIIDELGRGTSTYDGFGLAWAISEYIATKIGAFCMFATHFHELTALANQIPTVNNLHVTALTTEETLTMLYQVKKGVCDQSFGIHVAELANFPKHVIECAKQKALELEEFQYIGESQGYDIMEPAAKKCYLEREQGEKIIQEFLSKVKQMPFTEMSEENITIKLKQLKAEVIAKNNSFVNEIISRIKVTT
Sequence of MutSα (MSH2/MSH6 heterodimer) (P52701 whole entry): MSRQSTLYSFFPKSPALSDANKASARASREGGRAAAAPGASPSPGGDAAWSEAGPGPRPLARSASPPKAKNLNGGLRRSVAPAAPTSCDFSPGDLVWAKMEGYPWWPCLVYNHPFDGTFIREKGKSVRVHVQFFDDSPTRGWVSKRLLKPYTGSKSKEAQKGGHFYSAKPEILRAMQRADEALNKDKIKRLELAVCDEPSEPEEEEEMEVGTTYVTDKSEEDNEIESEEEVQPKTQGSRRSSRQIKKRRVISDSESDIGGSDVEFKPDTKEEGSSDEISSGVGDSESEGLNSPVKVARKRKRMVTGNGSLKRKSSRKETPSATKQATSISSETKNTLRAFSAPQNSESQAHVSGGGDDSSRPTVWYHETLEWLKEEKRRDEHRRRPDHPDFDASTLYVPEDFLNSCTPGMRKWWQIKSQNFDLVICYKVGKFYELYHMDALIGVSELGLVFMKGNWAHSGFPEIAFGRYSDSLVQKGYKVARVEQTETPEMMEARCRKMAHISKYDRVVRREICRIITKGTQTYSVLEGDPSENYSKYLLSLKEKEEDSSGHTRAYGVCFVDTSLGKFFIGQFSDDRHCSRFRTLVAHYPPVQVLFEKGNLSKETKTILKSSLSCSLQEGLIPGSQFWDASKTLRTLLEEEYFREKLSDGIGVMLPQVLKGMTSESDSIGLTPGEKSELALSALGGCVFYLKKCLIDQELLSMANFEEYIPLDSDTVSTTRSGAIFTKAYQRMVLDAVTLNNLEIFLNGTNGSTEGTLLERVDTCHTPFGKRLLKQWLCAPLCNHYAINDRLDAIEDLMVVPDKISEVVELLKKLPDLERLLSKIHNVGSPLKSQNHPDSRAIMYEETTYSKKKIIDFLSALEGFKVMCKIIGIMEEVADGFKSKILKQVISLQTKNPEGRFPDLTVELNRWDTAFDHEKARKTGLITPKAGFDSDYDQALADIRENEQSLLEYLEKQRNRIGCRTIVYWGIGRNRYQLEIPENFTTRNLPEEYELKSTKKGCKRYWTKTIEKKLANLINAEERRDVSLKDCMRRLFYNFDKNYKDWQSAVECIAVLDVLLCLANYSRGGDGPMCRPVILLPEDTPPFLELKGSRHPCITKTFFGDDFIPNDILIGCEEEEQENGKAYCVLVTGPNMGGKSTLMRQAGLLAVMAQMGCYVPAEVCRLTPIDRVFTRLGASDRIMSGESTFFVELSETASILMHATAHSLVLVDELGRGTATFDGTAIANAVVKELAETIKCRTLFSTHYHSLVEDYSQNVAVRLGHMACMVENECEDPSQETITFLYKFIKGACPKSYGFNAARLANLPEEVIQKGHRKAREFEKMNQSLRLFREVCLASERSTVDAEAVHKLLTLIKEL

With `O=c1cc(-c2ccccc2)oc2cc(O)c(O)c(O)c12` [baicalein, 5,6,7-trihydroxyflavone] the Kd was ~32.2 µM.

From paper PMC5033673 (Cancer research, 2016)
